Experimental data taken from ChEMBL document CHEMBL3632526, “Novel, potent, selective and cellular active ABC type PTP1B inhibitors containing (methanesulfonyl-phenyl-amino)-acetic acid methyl ester phosphotyrosine mimetic” (Bioorg Med Chem, 2015).
Calls of active or inactive are those of the source. No cut-off for these calls is given here.

Legend:
Homo sapiens [1] = species: Homo sapiens; test: Selectivity ratio of IC50 for SHP1 (unknown origin) to IC50 for PTP1B (unknown origin)
[2] = target: T1, Tyrosine-protein phosphatase non-receptor type 1 (Homo sapiens, UniProt P18031); test: Inhibition of recombinant PTP1B (unknown origin) assessed as hydrolysis of pNPP to pNP after 30 mins
T1 sequence (P18031 whole entry): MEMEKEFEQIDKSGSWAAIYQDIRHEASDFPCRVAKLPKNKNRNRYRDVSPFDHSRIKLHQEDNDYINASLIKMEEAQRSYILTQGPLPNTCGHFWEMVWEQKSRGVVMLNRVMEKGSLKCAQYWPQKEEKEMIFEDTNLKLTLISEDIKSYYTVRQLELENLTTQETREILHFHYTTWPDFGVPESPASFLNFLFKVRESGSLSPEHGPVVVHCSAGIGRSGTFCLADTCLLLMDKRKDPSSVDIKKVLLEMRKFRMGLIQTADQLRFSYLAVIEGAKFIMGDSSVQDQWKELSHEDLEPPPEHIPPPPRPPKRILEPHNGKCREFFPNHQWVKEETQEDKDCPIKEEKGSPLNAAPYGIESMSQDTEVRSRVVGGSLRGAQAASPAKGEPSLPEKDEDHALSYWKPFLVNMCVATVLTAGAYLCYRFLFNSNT

[3] = target: T2, Tyrosine-protein phosphatase non-receptor type 6 (Homo sapiens, UniProt P29350); test: Inhibition of SHP1 (unknown origin) assessed as hydrolysis of pNPP to pNP after 30 mins
[4] = target: T3, Tyrosine-protein phosphatase non-receptor type 2 (Homo sapiens) (UniProt P17706); test: Inhibition of TCPTP (unknown origin) assessed as hydrolysis of pNPP to pNP at 25 uM after 30 mins
T3 sequence (whole entry): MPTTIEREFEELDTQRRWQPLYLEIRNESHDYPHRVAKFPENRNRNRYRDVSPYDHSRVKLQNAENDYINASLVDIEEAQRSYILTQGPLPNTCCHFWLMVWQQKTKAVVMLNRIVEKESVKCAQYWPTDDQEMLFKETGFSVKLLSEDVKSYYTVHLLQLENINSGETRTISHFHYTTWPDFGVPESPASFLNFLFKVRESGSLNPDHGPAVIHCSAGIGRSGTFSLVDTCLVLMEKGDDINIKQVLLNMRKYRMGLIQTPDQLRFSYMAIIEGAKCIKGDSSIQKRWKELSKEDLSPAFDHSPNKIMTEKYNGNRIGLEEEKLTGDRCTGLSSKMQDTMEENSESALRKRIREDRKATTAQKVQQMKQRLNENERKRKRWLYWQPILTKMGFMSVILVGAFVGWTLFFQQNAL

[5] = target: T4, Tyrosine-protein phosphatase non-receptor type 11 (Homo sapiens, UniProt Q06124); test: Inhibition of SHP2 (unknown origin) assessed as hydrolysis of pNPP to pNP after 30 mins
T4 sequence (Q06124 whole entry): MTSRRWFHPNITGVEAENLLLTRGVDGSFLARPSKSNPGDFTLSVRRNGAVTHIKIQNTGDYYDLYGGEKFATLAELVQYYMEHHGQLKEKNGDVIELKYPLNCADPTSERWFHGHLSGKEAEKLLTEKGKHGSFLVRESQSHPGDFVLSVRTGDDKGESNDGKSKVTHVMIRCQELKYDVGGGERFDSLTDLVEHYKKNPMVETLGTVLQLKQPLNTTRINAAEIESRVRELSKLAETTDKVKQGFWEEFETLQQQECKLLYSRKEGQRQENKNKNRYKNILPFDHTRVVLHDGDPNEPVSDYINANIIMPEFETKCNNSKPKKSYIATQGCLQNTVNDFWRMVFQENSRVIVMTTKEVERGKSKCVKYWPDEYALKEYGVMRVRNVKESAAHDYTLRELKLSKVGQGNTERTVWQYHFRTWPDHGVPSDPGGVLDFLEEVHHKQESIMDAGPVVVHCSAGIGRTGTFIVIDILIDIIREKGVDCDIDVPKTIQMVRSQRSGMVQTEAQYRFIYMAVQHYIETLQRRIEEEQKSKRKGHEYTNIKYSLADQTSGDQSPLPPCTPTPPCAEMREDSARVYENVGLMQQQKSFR

[6] = target: Receptor-type tyrosine-protein phosphatase F (Homo sapiens) (UniProt P10586); test: Inhibition of LAR (unknown origin) assessed as hydrolysis of pNPP to pNP at 25 uM after 30 mins
Homo sapiens [7] = species: Homo sapiens; test: Selectivity ratio of IC50 for TCPTP (unknown origin) to IC50 for PTP1B (unknown origin)
Homo sapiens [8] = species: Homo sapiens; test: Increase in insulin-stimulated glucose uptake in differentiated human skeletal muscle cells preincubated for 4 hrs followed by insulin stimulation for 10 mins and addition of 2-NBDG measured after 30 mins by 2-NBDG-based fluorescence analysis; type: functional
CHO = test: Inhibition of PTP1B in CHO cells transfected with human IRbeta expressing plasmid assessed as increase in phosphorylation level of IRbeta at 15 uM and 30 uM incubated for 4 hrs prior to insulin stimulation for 10 mins by SDS-PAGE analysis; type: cell-based; conditions: Cricetulus griseus
[9] = target: T5, Tyrosine-protein phosphatase non-receptor type 11 (Homo sapiens) (UniProt Q06124); test: Inhibition of SHP2 (unknown origin) assessed as hydrolysis of pNPP to pNP at 25 uM after 30 mins
T5 sequence (whole entry): T4 sequence (Q06124 whole entry)

3T3-L1 = test: Inhibition of PTP1B in IRbeta expressing mouse 3T3L1 cells assessed as increase in phosphorylation level of IRbeta at 15 uM and 30 uM prior to insulin stimulation by SDS-PAGE analysis; type: cell-based
[10] = target: T6, Tyrosine-protein phosphatase non-receptor type 2 (Homo sapiens, UniProt P17706); test: Inhibition of TCPTP (unknown origin) assessed as hydrolysis of pNPP to pNP after 30 mins
T6 sequence (P17706 whole entry): T3 sequence (whole entry)

L6 [11] = test: Increase in insulin stimulated glucose uptake in differentiated rat L6 myotube at 5 uM preincubated for 4 hrs followed by insulin stimulation for 10 mins and addition of 2-NBDG measured after 30 mins by 2-NBDG-based fluorescence analysis; type: functional
L6 [12] = test: Increase in insulin stimulated glucose uptake in differentiated rat L6 myotube at 10 uM preincubated for 4 hrs followed by insulin stimulation for 10 mins and addition of 2-NBDG measured after 30 mins by 2-NBDG-based fluorescence analysis; type: functional
[13] = target: T7, Tyrosine-protein phosphatase non-receptor type 1 (Homo sapiens) (UniProt P18031); test: Inhibition of recombinant PTP1B (unknown origin) assessed as hydrolysis of pNPP to pNP at 25 uM after 30 mins
T7 sequence (whole entry): T1 sequence (P18031 whole entry)

[14] = target: T2, Tyrosine-protein phosphatase non-receptor type 6; test: Inhibition of SHP1 (unknown origin) assessed as hydrolysis of pNPP to pNP at 25 uM after 30 mins

Chain of Receptor-type tyrosine-protein phosphatase F (Homo sapiens) (P10586 whole entry): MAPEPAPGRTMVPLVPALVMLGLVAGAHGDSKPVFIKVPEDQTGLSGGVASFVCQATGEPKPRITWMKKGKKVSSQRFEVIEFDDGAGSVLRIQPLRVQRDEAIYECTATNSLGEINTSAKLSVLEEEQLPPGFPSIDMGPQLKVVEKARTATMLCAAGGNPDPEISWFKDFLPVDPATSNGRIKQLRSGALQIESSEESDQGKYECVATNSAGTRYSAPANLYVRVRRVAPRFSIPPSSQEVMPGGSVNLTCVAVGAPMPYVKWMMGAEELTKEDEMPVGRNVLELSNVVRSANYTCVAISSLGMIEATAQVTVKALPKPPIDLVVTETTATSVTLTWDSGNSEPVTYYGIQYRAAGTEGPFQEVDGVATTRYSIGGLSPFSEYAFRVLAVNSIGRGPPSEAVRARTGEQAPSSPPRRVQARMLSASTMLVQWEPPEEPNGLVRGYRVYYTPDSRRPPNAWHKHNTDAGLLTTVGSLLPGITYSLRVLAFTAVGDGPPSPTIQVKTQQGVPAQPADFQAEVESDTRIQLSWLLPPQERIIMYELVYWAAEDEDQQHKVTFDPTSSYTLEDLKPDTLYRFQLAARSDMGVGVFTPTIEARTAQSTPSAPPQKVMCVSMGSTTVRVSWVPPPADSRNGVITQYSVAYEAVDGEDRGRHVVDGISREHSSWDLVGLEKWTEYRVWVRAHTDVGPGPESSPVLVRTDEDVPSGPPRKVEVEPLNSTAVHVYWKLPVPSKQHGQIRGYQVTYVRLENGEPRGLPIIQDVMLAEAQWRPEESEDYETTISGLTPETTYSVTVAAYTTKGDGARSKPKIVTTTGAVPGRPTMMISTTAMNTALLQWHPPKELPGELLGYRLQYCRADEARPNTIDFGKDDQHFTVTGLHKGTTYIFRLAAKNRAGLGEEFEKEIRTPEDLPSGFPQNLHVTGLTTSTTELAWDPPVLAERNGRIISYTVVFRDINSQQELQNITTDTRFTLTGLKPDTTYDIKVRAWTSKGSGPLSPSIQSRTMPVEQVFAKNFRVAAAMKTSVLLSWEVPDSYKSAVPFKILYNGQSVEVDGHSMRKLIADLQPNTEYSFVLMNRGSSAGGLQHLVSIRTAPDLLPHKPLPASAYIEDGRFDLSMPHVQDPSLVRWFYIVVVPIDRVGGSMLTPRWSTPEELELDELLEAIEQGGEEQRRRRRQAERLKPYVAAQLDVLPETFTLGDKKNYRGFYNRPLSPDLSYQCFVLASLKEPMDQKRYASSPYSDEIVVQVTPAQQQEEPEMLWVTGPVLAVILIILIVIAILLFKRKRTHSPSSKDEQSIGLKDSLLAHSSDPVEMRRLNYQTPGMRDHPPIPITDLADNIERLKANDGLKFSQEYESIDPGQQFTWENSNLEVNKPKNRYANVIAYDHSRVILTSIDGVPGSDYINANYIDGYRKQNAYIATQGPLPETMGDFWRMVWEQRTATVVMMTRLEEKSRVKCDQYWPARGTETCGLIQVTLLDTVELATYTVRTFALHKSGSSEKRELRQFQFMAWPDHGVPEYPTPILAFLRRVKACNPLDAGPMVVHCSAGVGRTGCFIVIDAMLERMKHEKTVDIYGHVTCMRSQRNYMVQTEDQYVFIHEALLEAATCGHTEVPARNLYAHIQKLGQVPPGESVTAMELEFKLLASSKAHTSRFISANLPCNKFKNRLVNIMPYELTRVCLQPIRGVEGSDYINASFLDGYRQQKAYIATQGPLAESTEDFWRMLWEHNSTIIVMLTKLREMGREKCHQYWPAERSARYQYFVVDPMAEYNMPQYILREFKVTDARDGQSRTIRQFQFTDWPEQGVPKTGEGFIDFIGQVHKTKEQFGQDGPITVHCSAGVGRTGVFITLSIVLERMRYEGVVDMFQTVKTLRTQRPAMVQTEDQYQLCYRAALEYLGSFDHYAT
T2 sequence (P29350 whole entry): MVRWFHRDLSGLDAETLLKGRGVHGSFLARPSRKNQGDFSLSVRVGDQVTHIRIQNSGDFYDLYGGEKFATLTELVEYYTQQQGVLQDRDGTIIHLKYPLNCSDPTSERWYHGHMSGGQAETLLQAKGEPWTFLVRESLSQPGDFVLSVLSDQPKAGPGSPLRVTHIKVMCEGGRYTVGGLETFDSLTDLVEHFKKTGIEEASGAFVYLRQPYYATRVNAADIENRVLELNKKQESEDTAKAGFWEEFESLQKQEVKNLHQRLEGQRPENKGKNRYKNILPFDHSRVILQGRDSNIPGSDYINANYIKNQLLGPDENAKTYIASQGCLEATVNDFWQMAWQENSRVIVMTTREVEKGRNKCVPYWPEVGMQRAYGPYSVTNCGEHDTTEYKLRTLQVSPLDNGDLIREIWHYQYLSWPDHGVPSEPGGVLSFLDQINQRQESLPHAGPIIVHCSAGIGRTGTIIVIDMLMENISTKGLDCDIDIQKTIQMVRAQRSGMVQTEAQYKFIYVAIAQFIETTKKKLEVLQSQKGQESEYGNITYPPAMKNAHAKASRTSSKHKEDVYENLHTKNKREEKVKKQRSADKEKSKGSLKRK

Compound: COC(=O)CN(c1ccc(CN(c2ccc(N(Cc3ccccc3)S(C)(=O)=O)cc2)S(=O)(=O)Cc2ccccc2)cc1)S(C)(=O)=O
- Ratio IC50 (Homo sapiens [1]): 20
- IC50 [2]: 492 nM
- IC50 [3]: 9610 nM
- inhibition [4]: < 50%
- IC50 [5]: 11600 nM
- inhibition [6]: < 50%

Compound: CCOc1ccc(S(=O)(=O)N(Cc2ccc(N(CC(=O)OC)S(C)(=O)=O)cc2)c2ccc(CN(Cc3ccccc3)S(C)(=O)=O)cc2)cc1
- Ratio IC50 (Homo sapiens [7]): 8
- Ratio IC50 (Homo sapiens [1]): 10
- IC50 [2]: 222 nM
- Activity (Homo sapiens [8]): Dose-dependent effect
- inhibition (CHO): Active
- inhibition [9]: < 50%
- inhibition (3T3-L1): Active
- IC50 [3]: 2310 nM
- IC50 [10]: 1860 nM
- inhibition [6]: < 50%
- Activity (L6 [11]): 23.3%
- Activity (L6 [12]): 29.3%

Compound: CCCCOc1ccc(S(=O)(=O)N(Cc2ccc(N(CC(=O)OC)S(C)(=O)=O)cc2)c2ccc(CN(Cc3ccccc3)S(C)(=O)=O)cc2)cc1
- IC50 [2]: 896 nM

Compound: COC(=O)CN(c1ccc(CN(c2ccc(CN(Cc3ccccc3)S(C)(=O)=O)cc2)S(=O)(=O)Cc2ccccc2)cc1)S(C)(=O)=O
- inhibition [13]: < 50%

Compound: CCOc1ccc(S(=O)(=O)Nc2ccc(N(Cc3ccc(N(CC(=O)OC)S(=O)(=O)CC)cc3)S(=O)(=O)Cc3ccccc3)cc2)cc1
- IC50 [2]: 470 nM
- inhibition [9]: < 50%
- IC50 [3]: 11400 nM
- IC50 [10]: 1920 nM
- inhibition [6]: < 50%

Compound: CCCOc1ccc(S(=O)(=O)N(Cc2ccc(N(CC(=O)OC)S(C)(=O)=O)cc2)c2ccc(CN(Cc3ccccc3)S(C)(=O)=O)cc2)cc1
- IC50 [2]: 902 nM

Compound: COC(=O)CN(c1ccc(CN(c2ccc(CN(Cc3ccccc3)S(C)(=O)=O)cc2)S(=O)(=O)c2ccccc2)cc1)S(C)(=O)=O
- IC50 [2]: 16100 nM

Compound: COC(=O)CN(c1ccc(CN(c2ccc(CN(Cc3ccccc3)S(C)(=O)=O)cc2)S(=O)(=O)c2ccc(OC)cc2)cc1)S(C)(=O)=O
- IC50 [2]: 346 nM
- inhibition [9]: < 50%
- inhibition [4]: < 50%
- inhibition [14]: < 50%
- inhibition [6]: < 50%

Compound: CCCCOc1ccc(S(=O)(=O)N(Cc2ccc(N(CC(=O)OC)S(C)(=O)=O)cc2)c2ccc(NS(=O)(=O)Cc3ccccc3)cc2)cc1
- IC50 [2]: 1710 nM

Compound: CCS(=O)(=O)N(CC(=O)OC)c1ccc(CN(c2ccc(CN(Cc3cccc(Cl)c3)S(C)(=O)=O)cc2)S(=O)(=O)Cc2ccccc2)cc1
- inhibition [13]: < 50%

Compound: COC(=O)CN(c1ccc(CN(c2ccc(CN(Cc3ccc(C)cc3)S(C)(=O)=O)cc2)S(=O)(=O)Cc2ccccc2)cc1)S(C)(=O)=O
- IC50 [2]: 20300 nM

Compound: COC(=O)CN(c1ccc(CN(c2ccc(N(Cc3cccc(Cl)c3)S(C)(=O)=O)cc2)S(=O)(=O)Cc2ccccc2)cc1)S(C)(=O)=O
- inhibition [13]: < 50%
